Assay results from patent publication US10485741B2 (WONKWANG UNIVERSITY CENTER FOR INDUSTRY-ACADEMY COOPERATION, priority 2016, dated 2019).
Values after ≈ are worked out from the molar mass of the structure shown. Where two headings read alike, the source gives them in different places.

Columns and labels:
Format in all cases: cell-based, Streptococcus mutans
S. mutans (ATCC 25175) = assay: Agar diffusion test (paper disc), antibacterial substance alone; settings: for diameter of the S. mutans inhibition zone, 0.1 mM antibacterial substance alone: 5 μL of 0.1 mM substance on 6 mm paper disc; for diameter of the S. mutans inhibition zone, 0.1 mM antibacterial substance alone / diameter of the S. mutans inhibition zone, 1 mM antibacterial substance alone / diameter of the S. mutans inhibition zone, 10 mM antibacterial substance alone: 24 h, positive control 10 μL/ml ampicillin; for diameter of the S. mutans inhibition zone, 1 mM antibacterial substance alone: 5 μL of 1 mM substance on 6 mm paper disc; for diameter of the S. mutans inhibition zone, 10 mM antibacterial substance alone: 5 μL of 10 mM substance on 6 mm paper disc; for antibacterial activities against S. mutans (in words): screening from a total 100 substances; for activities against S. mutans (in words): 0.1 mM antibacterial substance
Experimental: Specifically, S. mutans was primarily cultured in a BHI medium in a CO2 incubator at 37°C. for 24 hours. Then, 200 μL of a suspension of S. mutans was inoculated into BHI and secondarily cultured for 6 hours. Then, the OD value was measured with Eppendorf Biophotometer plus. After the measurement, the bacteria were mixed with top agar and then inoculated into the agar medium containing base agar. After top agar hardened, a 6 mm diameter paper disc was placed on the agar medium. 5 μL of each of 0.1 mM, 1 mM and 10 mM antibacterial substances was dropped on the paper disc. 10 μL/ml of ampicilin was used as the positive control, and PBS was used as the negative control. After culturing in a CO2 incubator at 37°C for 24 hours, the diameter of the S. mutans inhibition zone formed around the paper disc was measured in two perpendicular locations and the average was calculated to evaluate the antibacterial activities. The average was expressed in mm.

S. mutans [1] = assay: Formation of Semi-inhibition zone by fluoride varnish mixed with antibacterial substance (agar diffusion); settings: for Semi-inhibition zone, Fluoride varnish + 1 mM substance / Semi-inhibition zone, Fluoride varnish + 10 mM substance: Table 4, substance mixed 1:1 with fluoride varnish, positive control = ampicillin alone
Text: In addition, the formation of Semi-inhibition zone was investigated according to the same method as in Test Example 1.

S. mutans [2] = assay: Minimum inhibitory concentration (MIC) and minimal bactericidal concentration (MBC), 96-well BHI broth dilution; settings: for MIC: BHI broth, 24-hour culture, absorbance at 600 nm
Experimental: The minimum inhibitory concentration and minimal bactericidal concentration of antibacterial substances were identified using S. mutans, which is related to dental caries, as the strain. Specifically, in order to measure MIC, a 96-well plate containing 100 μL of BHI broth per well was used. Antibacterial substances were used at a concentration of 16 mM, and the substance No. 1-2 of Example 1 was used at a concentration of 1 mM. The antibacterial materials were transferred to the first well and diluted stepwise. The substance No. 1-2 was diluted to 1 mM to 0.004375 mM and the other antibacterial substances were diluted to 16 mM to 0.007 mM. S. mutans was activated using BHI broth as the medium and cultured in a CO2 incubator at 37° C. for 24 hours. Then, the bacteria were cultured for another 6 hours, and then 100 μL thereof was added to each well of the 96-well plate. After 24-hour culture, the minimum inhibitory concentration was determined by measuring the absorbance at 600 nm with Enzyme-linked immuno-assay reader (Spectra MAX250, Molecular Devices Co.).

S. mutans [3] = assay: Agar diffusion test of fluoride varnish of hydrogenated rosin mixed with antibacterial substance, inhibition zone; settings: for Inhibition zone, Fluoride varnish + 1 mM substance / Inhibition zone, Fluoride varnish + 10 mM substance: substance mixed 1:1 with fluoride varnish, positive control = ampicillin alone; for antibacterial activities of fluoride varnish mixed with substance compared with a fluoride varnish alone (in words): 1 mM or 10 mM antibacterial substance
Experimental: Antibacterial substance powders were dissolved in DMSO to 100 mM and stored. It was diluted with DMSO to prepare 20 mM and 2 mM antibacterial substances.
Specifically, S. mutans was primarily cultured in a BHI medium in a CO2 incubator at 37°C. for 24 hours. Then, 200 μL of a suspension of S. mutans was inoculated into BHI and secondarily cultured for 6 hours. Then, the OD value was measured with Eppendorf Biophotometer plus. After the measurement, the bacteria were mixed with top agar and then inoculated into the agar medium containing base agar. After top agar hardened, a 6 mm diameter paper disc was placed on the agar medium.
5 μL of each of 0.1 mM, 1 mM and 10 mM antibacterial substances was dropped on the paper disc. 10 μL/ml of ampicilin was used as the positive control, and PBS was used as the negative control. After culturing in a CO2 incubator at 37°C for 24 hours, the diameter of the S. mutans inhibition zone formed around the paper disc was measured in two perpendicular locations and the average was calculated to evaluate the antibacterial activities. The average was expressed in mm.
Fluoride varnishes mixed with an antibacterial substance which comprise an antibacterial substance tested in Test Example 1 were prepared according to the method described in Example 2 and the antibacterial activities thereof were tested.

[4] = Streptococcus mutans, 24 h, read-out: MIC
[5] = Streptococcus mutans, read-out: MBC
[6] = listed as xanthorrhizol (BioAlpha)
[7] = listed as xanthorrhizol (Santa Cruz)

| SMILES | diameter of the S. mutans inhibition zone, 0.1 mM antibacterial substance alone (S. mutans (ATCC 25175)) [mm] | diameter of the S. mutans inhibition zone, 1 mM antibacterial substance alone (S. mutans (ATCC 25175)) [mm] | diameter of the S. mutans inhibition zone, 10 mM antibacterial substance alone (S. mutans (ATCC 25175)) [mm] | antibacterial activities against S. mutans (in words) (S. mutans (ATCC 25175)) | Semi-inhibition zone, Fluoride varnish + 1 mM substance (S. mutans [1]) [mm] | Semi-inhibition zone, Fluoride varnish + 10 mM substance (S. mutans [1]) [mm] | MIC, rank (in words) (S. mutans [2]) | MIC (S. mutans [2]; [4]) [µM] | MBC (S. mutans [2]; [5]) [µM] | Inhibition zone, Fluoride varnish + 1 mM substance (S. mutans [3]; primary test (Table 2)) [mm] | Inhibition zone, Fluoride varnish + 10 mM substance (S. mutans [3]; primary test (Table 2)) [mm] | antibacterial activities of fluoride varnish mixed with substance compared with a fluoride varnish alone (in words) (S. mutans [3]; primary test) | Inhibition zone, Fluoride varnish + 1 mM substance (S. mutans [3]; secondary test (Table 3)) [mm] | Inhibition zone, Fluoride varnish + 10 mM substance (S. mutans [3]; secondary test (Table 3)) [mm] | also measured |
| --- | --- | --- | --- | --- | --- | --- | --- | --- | --- | --- | --- | --- | --- | --- | --- |
| C=C[C@@](C)(/C=C/c1ccc(O)cc1)CCC=C(C)C [No. 2, Bakuchiol] | 6 | 8.9 | 14.5 | significant antibacterial activities | 22.87 | 26.705 | lowest MIC | 15 (≈ 3.85 µg/mL) | 31 (≈ 7.95 µg/mL) | 9.55 | 9.82 | significant antibacterial activities | 8.53 | 10.10 | MBC, rank (in words) (S. mutans [2]): lowest MBC |
| CC(C)=CCC[C@@H](C)c1ccc(C)c(O)c1 [No. 1-2, xanthorrhizol] | 8.26 | 10.3 | – | – | 12.265 | – | lowest MIC | – | – | 8.58 | – | – | 9.65 | – | MIC (S. mutans [2]; [6]): 15 µM (≈ 3.28 µg/mL); MBC (S. mutans [2]; [6]): 62 µM (≈ 13.5 µg/mL) |
| CC1(C)S[C@@H]2[C@H](NC(=O)[C@H](N)c3ccccc3)C(=O)N2[C@H]1C(=O)O [Positive control group, ampicillin, reference compound] | 17.24 | 22.2 | 22.4 | – | 13.55 | 14.84 | – | – | – | 18.05 | 18.72 | – | 13.55 | 14.84 | formation of Semi-inhibition zone (in words) (S. mutans [1]): did not form a Semi-inhibition zone |
| CC1(C)C=Cc2c(ccc(C(=O)/C=C/c3ccc(O)cc3)c2O)O1 [No. 4, Isobavachromene] | 6 | 8.71 | 9.91 | significant antibacterial activities | 20.795 | 24.81 | lowest MIC | 15 (≈ 4.84 µg/mL) | 125 (≈ 40.3 µg/mL) | 9.94 | 10.93 | significant antibacterial activities | 9.17 | 9.96 | – |
| CC(C)=CCC[C@@H](C)c1ccc(C)c(O)c1 [No. 1-1, xanthorrhizol] | 6 | 6 | 7.75 | – | 25.515 | 25.725 | – | – | – | 9.14 | 10.62 | – | 8.64 | 10.28 | MIC (S. mutans [2]; [7]): 62 µM (≈ 13.5 µg/mL); MBC (S. mutans [2]; [7]): 125 µM (≈ 27.3 µg/mL) |
| CC(C)=CCc1cc(C(=O)/C=C/c2ccc(O)cc2)c(O)cc1O [No. 3, Bavachalcone] | 9.63 | 14.51 | 18.87 | significant antibacterial activities | 34.025 | 20.74 | lowest MIC | 15 (≈ 4.87 µg/mL) | 62 (≈ 20.1 µg/mL) | 11.31 | 15.35 | significant antibacterial activities | 12.79 | 13.17 | activities against S. mutans (in words) (S. mutans (ATCC 25175)): significant activities; activities against S. mutans, rank (in words) (S. mutans (ATCC 25175); 1 mM antibacterial substance): highest activities; activities against S. mutans, rank (in words) (S. mutans (ATCC 25175); 10 mM antibacterial substance): highest activities; formation of Semi-inhibition zone (in words) (S. mutans [1]): largest Semi-inhibition zone; increase of antibacterial activities of fluoride varnish mixed with substance (S. mutans [3]; primary test, compared with a fluoride varnish alone): ≥ 70%; antibacterial activities of fluoride varnish mixed with substance (in words) (S. mutans [3]; secondary test): remarkable antibacterial activities |
| CC(C)=CCC[C@@H](C)c1ccc(C)c(O)c1 [xanthorrhizol] | – | – | – | significant antibacterial activities | – | – | – | – | – | – | – | significant antibacterial activities | – | – | activities against S. mutans (in words) (S. mutans (ATCC 25175)): significant activities |
| CC1(C)C=Cc2cc(C(=O)/C=C/c3ccc(O)cc3)c(O)cc2O1 [No. 5, Bavachromene] | 6 | 8.75 | 9.74 | significant antibacterial activities | 20.79 | 25.235 | – | 31 (≈ 9.99 µg/mL) | 125 (≈ 40.3 µg/mL) | 10.27 | 10.60 | significant antibacterial activities | 8.66 | 10.48 | antibacterial activities against S. mutans in all conditions (in words) (S. mutans (ATCC 25175); 10 mM, 1 mM and 0.1 mM): significant antibacterial activities |
